Results: US12370143B2, “Compound or salt thereof and lipid particles” (FUJIFILM Corporation, priority 2018, dated 2025)

Legend:
[1] = Particle size of nucleic acid lipid particles (Luc2-siRNA); format: physicochemical; settings: compound/DSPC/cholesterol/DMG-PEG2000 50/10/38.5/1.5
Procedure: By using the dispersion liquid of lipid particles as it was, the particle size of the lipid particles was measured using a zeta potential/particle size measurement system ELS-Z2 (Otsuka Electronics Co., Ltd.).
(§1) The compounds described in Table 2, L-α-distearoylphosphatidylcholine (trade name: COATSOME® MC-8080; NOF corporation), cholesterol (trade name: Choesterol HP; NIPPON FINE CHEMICAL CO., LTD.), and 1,2-dimyristoyl-rac-glycero-3-(methylpolyoxyethylene 2000) (hereinafter, called DMG-PEG2000) (trade name: SUNBRIGHT® GM-020; NOF corporation) were dissolved in ethanol at a molar ratio of 50/10/38.5/1.5 such that the total lipid concentration became 20 mmol/L, thereby obtaining an oil phase.
(§2) An aqueous nucleic acid solution obtained by dissolving 5 mg of Luc2-siRNA having the sequence described in Biomacromolecules (2013) 14, p. 3905 in 1 mL of sterile water was diluted with 10 mmol/L acetate buffer having a pH 4 such that the nucleic acid concentration became 19.7 μmol/L, thereby obtaining a water phase. Then, the water phase and the oil phase were mixed together by a micromixer (see JP5288254B) using a syringe pump such that the volume ratio of water phase:oil phase became 3:1 (final ratio of siRNA/lipid=339 (mol/mol)), and the mixed solution was diluted 2× with PBS, thereby obtaining a dispersion liquid of nucleic acid lipid particles. The dispersion liquid was dialyzed (Slide-A-Lyzer G2, MWCO: 10 kD, Thermo Fisher Scientific) using a phosphate buffered saline such that ethanol was removed, thereby obtaining nucleic acid lipid particles.
The particle size of the nucleic acid lipid particles was measured by the same method as that in <Preparation of lipid particles>.

[2] = Encapsulation rate of siRNA in nucleic acid lipid particles (Luc2-siRNA); format: physicochemical; settings: compound/DSPC/cholesterol/DMG-PEG2000 50/10/38.5/1.5
Procedure: as §1, §2
A 3 mol/L aqueous sodium acetate solution (30 μL) and 9 μL of glycogen were added to 60 μL of the lipid particles retaining nucleic acids, and then 1.5 mL of ethanol was added thereto such that only the nucleic acids were precipitated while the lipid was dissolved. Then, the supernatant was removed by centrifugation. After the precipitates were air-dried for 15 minutes or longer, water was added thereto such that the precipitates were redissolved, and the concentration thereof was measured using Nanodrop NF1000 (Thermo Fisher Scientific), thereby quantifying the total nucleic acid concentration.
The nucleic acid concentration was quantified using a Quant-iT RiboGreen RNA Assay Kit (Thermo Fisher Scientific) according to the protocol. First, a 20×TE buffer included in the above kit was diluted with water, thereby obtaining a 1×TE buffer. TE represents Tris/EDTA (ethylenediaminetetraacetic acid). In order to quantify only the nucleic acid in the outer water phase, the dispersion liquid of lipid particles retaining nucleic acids was diluted 10,000× with the 1×TE buffer.
The 10,000× diluted dispersion liquid of lipid particles (100 μL) was put in a 96-well plate, then 100 μL of a RiboGreen reagent (reagent included in the Quanti-iT Ribogreen RNA Assay Kit described above) diluted 2000× with the 1×TE buffer was added to a sample, and fluorescence (excitation wavelength: 485 nm, fluorescence wavelength: 535 nm) was measured using a plate reader Infinit EF200 (TECAN), thereby quantifying the nucleic acid concentration in the outer water phase.
By using the total nucleic acid concentration obtained through the above steps and the quantified nucleic acid concentration in the outer water phase, the nucleic acid encapsulation rate of the nucleic acid lipid particles was calculated according to the following Equation. Nucleic acid encapsulation rate (%)=(total nucleic acid concentration−nucleic acid concentration in outer water phase)/total nucleic acid concentration×100 The results are shown in Table 2.

Question: What does the source list for `CCCCCC/C=C\COC(=O)OCCCCCCN(CCCCCCOC(=O)OC/C=C\CCCCCC)C(=O)OCCN(C)CCN(C)C` [Example 14, 2-((2-(Dimethylamino)ethyl)(methyl)amino)ethyl bis(6-(((((Z)-non-2-en-1-yl)oxy)carbonyl)oxy)hexyl)carbamate]?
Answer: Particle size (nm) [1]: 219.0 nm; Nucleic acid encapsulation rate [2]: 76%

Question: Which “Particle size (nm)” value [1] does the source give for `CCCCC/C=C\C/C=C\CCCCCCCCC(CCCCCCCC/C=C\C/C=C\CCCCC)OC(=O)OCCN(CCO)CCN(C)C` [Example 28] here?
Answer: The value was 76.4 nm.

Question: What about the “Nucleic acid encapsulation rate” value [2] of the same compound?
Answer: Its value is 75%.

Question: Which “Particle size (nm)” value [1] does the source give for `CCCCC/C=C\C/C=C\CCCCCCCCC(CCCCCCCC/C=C\C/C=C\CCCCC)OC(=O)OCCN(CCN(C)CC)C(C)(C)C` [Example 79, 2-(tert-Butyl(2-(ethyl(methyl)amino)ethyl)amino)ethyl((6Z,9Z,28Z,31Z)-heptatriaconta-6,9,28,31-tetraen-19-yl)carbonate] here?
Answer: Its value is 65.5 nm.

Question: What about the “Nucleic acid encapsulation rate” value [2] of the same compound?
Answer: Its value is 81%.

Question: Which results are given for `CCCCCCCCC1CC1CCCCCCCC(=O)OCCCCCCC(CCCCCCOC(=O)CCCCCCCC1CC1CCCCCCCC)OC(=O)OCCN(CC)CCN(CC)CC` (stereo not shown) [Example 57]?
Answer: Particle size (nm) [1]: 77.9 nm; Nucleic acid encapsulation rate [2]: 79%

Question: For `CCCCC/C=C\C/C=C\CCCCCCCCC(CCCCCCCC/C=C\C/C=C\CCCCC)OC(=O)OCCN(CC)CCN1CCOCC1` [Example 22, 2-(Ethyl(2-morpholinoethyl)amino)ethyl((6Z,9Z,28Z,31Z)-heptatriaconta-6,9,28,31-tetraen-19-yl)carbonate], which “Particle size (nm)” value [1] is on record?
Answer: The value was 69.3 nm.

Question: What about the “Nucleic acid encapsulation rate” value [2] of the same compound?
Answer: The value was 69%.

Question: Which results are given for `CCCCCCCCC(CCCCCC)COC(=O)CCCCC(CCCCCC)OC(=O)OCCN(CCN(CC)CC)C(C)C` (stereo not shown) [Example 96, 2-Hexyldecyl 3-ethyl-12-hexyl-6-isopropyl-10-oxo-9,11-dioxa-3,6-diazaheptadecan-17-oate]?
Answer: Particle size (nm) [1]: 72.9 nm; Nucleic acid encapsulation rate [2]: 88%

Question: Which results are given for `CCCCC/C=C\C/C=C\CCCCCCCCC(CCCCCCCC/C=C\C/C=C\CCCCC)OC(=O)OCCN(CCC)CCN(CC)CC` [Example 44, 2-((2-(Diethylamino)ethyl)(propyl)amino)ethyl((6Z,9Z,28Z,31Z)-heptatriaconta-6,9,28,31-tetraen-19-yl)carbonate]?
Answer: Particle size (nm) [1]: 69.4 nm; Nucleic acid encapsulation rate [2]: 59%

Question: For `CCCCC/C=C\C/C=C\CCCCCCCC(=O)OCC(COC(=O)CCCCCCC/C=C\C/C=C\CCCCC)OC(=O)OCCN(CC)CCN(C)C` [Example 35, 2-(((2-((2-(Dimethylamino)ethyl)(ethyl)amino)ethoxy)carbonyl)oxy)propane-1,3-diyl(9Z,9′Z,12Z,12′Z)-bis(octadeca-9,12-dienoate)], which “Particle size (nm)” value [1] is on record?
Answer: The value was 80.1 nm.

Question: And the “Nucleic acid encapsulation rate” value [2]?
Answer: The value was 87%.

Question: With `CCCCCC/C=C\COC(=O)CCCCCCCN(CCCCCCCC(=O)OC/C=C\CCCCCC)C(=O)OCCN(C)CCN(C)C` [Example 11, (Z)-non-2-en-1-yl 2,5-dimethyl-10-(8-(((Z)-non-2-en-1-yl)oxy)-8-oxooctyl)-9-oxo-8-oxa-2,5,10-triazaoctadecan-18-oate] as the compound, how does the “Particle size (nm)” value [1] read?
Answer: The value was 217.2 nm.

Question: What about the “Nucleic acid encapsulation rate” value [2] of the same compound?
Answer: Its value is 84%.

Question: With `CCCCCCCCC(CCCCCC)COC(=O)CCCCCCCCC(CCCCC)OC(=O)OCCN(CCN(CC)CC)C(C)C` (stereo not shown) [Example 127, 2-Hexyldecyl 3-ethyl-6-isopropyl-10-oxo-12-pentyl-9,11-dioxa-3,6-diazahenicosan-21-oate] as the compound, how does the “Particle size (nm)” value [1] read?
Answer: Its value is 80.7 nm.

Question: What about the “Nucleic acid encapsulation rate” value [2] of the same compound?
Answer: Its value is 71%.

Question: Which results are given for `CCCCC/C=C\C/C=C\CCCCCCCCN(CCCCCCCC/C=C\C/C=C\CCCCC)C(=O)OCCN(CC)CCN1CCOCC1` [Example 6, 2-(Ethyl(2-morpholinoethyl)amino)ethyl di((9Z,12Z)-octadeca-9,12-dien-1-yl)carbamate]?
Answer: Particle size (nm) [1]: 113.5 nm; Nucleic acid encapsulation rate [2]: 78%

Question: Which “Particle size (nm)” value [1] does the source give for `CCCCCCC(CCCC)COC(=O)CCCCCCC(CCCCCC)OC(=O)OCCN(CCN(CC)CC)C(C)C` (stereo not shown) [Example 92, 2-Butyloctyl 3-ethyl-12-hexyl-6-isopropyl-10-oxo-9,11-dioxa-3,6-diazanonadecan-19-oate] here?
Answer: The value was 90.5 nm.

Question: And the “Nucleic acid encapsulation rate” value [2]?
Answer: The value was 73%.

Question: With `CCCCC/C=C\C/C=C\CCCCCCCCN(CCCCCCCC/C=C\C/C=C\CCCCC)C(=O)OCCCN(C)CCN(C)C` [Example 2, 3-((2-(Dimethylamino)ethyl)(methyl)amino)propyl di((9Z,12Z)-octadeca-9,12-dien-1-yl)carbamate] as the compound, how does the “Particle size (nm)” value [1] read?
Answer: Its value is 80.5 nm.

Question: And the “Nucleic acid encapsulation rate” value [2]?
Answer: Its value is 78%.

Question: Which results are given for `CCCCCCC(CCCC)COC(=O)CCCC(CCCCCC)OC(=O)OCCN(CC)CCN(CC)CC` (stereo not shown) [Example 80, 2-butyloctyl 3,6-diethyl-12-hexyl-10-oxo-9,11-dioxa-3,6-diazahexadecan-16-oate]?
Answer: Particle size (nm) [1]: 98.7 nm; Nucleic acid encapsulation rate [2]: 61%

Question: What does the source list for `CCCCCCCCC(CCCCCC)COC(=O)CCCCCCCCC(CCCCC)OC(=O)OCCN(CCOC(=O)CCCCCCC)CCN(CC)CC` (stereo not shown) [Example 132, 2-Hexyldecyl 3-ethyl-6-(2-(octanoyloxy)ethyl)-10-oxo-12-pentyl-9,11-dioxa-3,6-diazahenicosan-21-oate]?
Answer: Particle size (nm) [1]: 98.4 nm; Nucleic acid encapsulation rate [2]: 76%

Question: Which “Particle size (nm)” value [1] does the source give for `CCCCCCC(CCCC)COC(=O)CCCCCCCCC(CCCCCC)OC(=O)OCCN(CCO)CCCN(CC)CC` (stereo not shown) [Example 90, 2-Butyloctyl 3-ethyl-13-hexyl-7-(2-hydroxyethyl)-11-oxo-10,12-dioxa-3,7-diazadocosan-22-oate] here?
Answer: Its value is 169.3 nm.

Question: What about the “Nucleic acid encapsulation rate” value [2] of the same compound?
Answer: The value was 60%.

Question: With `CCCCCCCC/C=C\CCCCCCCCOC(=O)CCCC(CCCCCC)OC(=O)OCCN(CCN(CC)CC)C(C)C` (stereo not shown) [Example 115, (Z)-octadec-9-en-1-yl 3-ethyl-12-hexyl-6-isopropyl-10-oxo-9,11-dioxa-3,6-diazahexadecan-16-oate] as the compound, how does the “Particle size (nm)” value [1] read?
Answer: Its value is 88.6 nm.

Question: What about the “Nucleic acid encapsulation rate” value [2] of the same compound?
Answer: Its value is 69%.

Question: Which “Particle size (nm)” value [1] does the source give for `CCCCC/C=C\C/C=C\CCCCCCCCN(CCCCCCCCC)C(=O)OCCN(C)CCN(C)C` [Example 16, 2-((2-(Dimethylamino)ethyl)(methyl)amino)ethyl nonyl((9Z,12Z)-octadeca-9,12-dien-1-yl)carbamate] here?
Answer: Its value is 113.4 nm.

Question: What about the “Nucleic acid encapsulation rate” value [2] of the same compound?
Answer: Its value is 90%.

Question: Which “Particle size (nm)” value [1] does the source give for `CCCCCCCCC(CCCCCC)COC(=O)CCC(CCCCCC)OC(=O)OCCN(CCN(CC)CC)C(C)C` (stereo not shown) [Example 114, 2-Hexyldecyl 3-ethyl-12-hexyl-6-isopropyl-10-oxo-9,11-dioxa-3,6-diazapentadecan-15-oate] here?
Answer: Its value is 80.1 nm.

Question: And the “Nucleic acid encapsulation rate” value [2]?
Answer: Its value is 69%.

Question: Which “Particle size (nm)” value [1] does the source give for `CCCCC/C=C\C/C=C\CCCCCCCCN(CCCCCCCC/C=C\C/C=C\CCCCC)C(=O)OCCN(C)CCCN(C)C` [Example 8, 2-((3-(Dimethylamino)propyl)(methyl)amino)ethyl di((9Z,12Z)-octadeca-9,12-dien-1-yl)carbamate] here?
Answer: Its value is 81.4 nm.

Question: And the “Nucleic acid encapsulation rate” value [2]?
Answer: Its value is 83%.

Question: Which “Particle size (nm)” value [1] does the source give for `CCCCCCCCCOC(=O)CCCCCCCN(CCCCCCCC(=O)OCCCCCCCCC)C(=O)OCCN(C)CCN(C)C` [Example 13, Nonyl 2,5-dimethyl-10-(8-(nonyloxy)-8-oxooctyl)-9-oxo-8-oxa-2,5,10-triazaoctadecan-18-oate] here?
Answer: The value was 140.3 nm.

Question: And the “Nucleic acid encapsulation rate” value [2]?
Answer: Its value is 88%.

Question: For `CCCCCCC(CCCCCCCCC(=O)OCC(CCCCC)CCCCC)OC(=O)OCCN(CCO)CCN(CC)CC` (stereo not shown) [Example 128, 2-Pentylheptyl 3-ethyl-12-hexyl-6-(2-hydroxyethyl)-10-oxo-9,11-dioxa-3,6-diazahenicosan-21-oate], which “Particle size (nm)” value [1] is on record?
Answer: Its value is 255 nm.

Question: What about the “Nucleic acid encapsulation rate” value [2] of the same compound?
Answer: Its value is 62%.

Question: Which “Particle size (nm)” value [1] does the source give for `CCCCCCC(CCCC)COC(=O)CCCCCCCCC(CCCCCC)OC(=O)OCCN(CCO)CCN(CC)CC` (stereo not shown) [Example 85, 2-Butyloctyl 3-ethyl-12-hexyl-6-(2-hydroxyethyl)-10-oxo-9,11-dioxa-3,6-diazahenicosan-21-oate] here?
Answer: The value was 246.6 nm.

Question: What about the “Nucleic acid encapsulation rate” value [2] of the same compound?
Answer: Its value is 86%.
